Data reported in publication PMC11951252 (RSC Advances, 2025).
“And” between values parts separate entries of the source, which are not always exact repeats. Identical values can stand only once.

What was measured:
MCF-7 = test: Antiproliferative MTT assay, MCF-7; format: cell-based, human; details: Homo sapiens, MCF7, read-out: Antiproliferative activity IC50 ± SEM, MCF-7
EGFR-TK = EGFR-TK (Homo sapiens, UniProt P00533); test: EGFR inhibitory assay; format: biochemical; details: for IC50: EGFR IC50 ± SEM
PC-3 = test: Antiproliferative MTT assay, PC-3; format: cell-based; details: Homo sapiens, PC-3, read-out: Antiproliferative activity IC50 ± SEM, PC-3
HCT-116 = test: Antiproliferative MTT assay, HCT-116; format: cell-based; details: Homo sapiens, HCT-116, read-out: Antiproliferative activity IC50 ± SEM, HCT-116
HER2-TK = HER2-TK (Homo sapiens, UniProt P04626); test: HER2 inhibitory assay; format: biochemical
MDAMB-231 = test: Antiproliferative MTT assay, MDAMB-231; format: cell-based, human; details: MDAMB-231 breast cancer cell line
[1] = test system: four human cancer cell lines (HCT-116, PC-3, MCF-7, MDAMB-231); test: Antiproliferative MTT assay, average over four cancer cell lines; format: cell-based; details: Homo sapiens, average IC50 of the four cancer cell lines
MDA-MB 231 cancer cells = test: Cell cycle analysis; format: cell-based, human
MDA-MB 231 cells = test: Apoptosis induction analysis; format: cell-based, human
BRAF^V600E = details: read-out: BRAF^V600E IC50; cited from earlier work

Sequence of HER2-TK (P04626 676-1255 limits assumed): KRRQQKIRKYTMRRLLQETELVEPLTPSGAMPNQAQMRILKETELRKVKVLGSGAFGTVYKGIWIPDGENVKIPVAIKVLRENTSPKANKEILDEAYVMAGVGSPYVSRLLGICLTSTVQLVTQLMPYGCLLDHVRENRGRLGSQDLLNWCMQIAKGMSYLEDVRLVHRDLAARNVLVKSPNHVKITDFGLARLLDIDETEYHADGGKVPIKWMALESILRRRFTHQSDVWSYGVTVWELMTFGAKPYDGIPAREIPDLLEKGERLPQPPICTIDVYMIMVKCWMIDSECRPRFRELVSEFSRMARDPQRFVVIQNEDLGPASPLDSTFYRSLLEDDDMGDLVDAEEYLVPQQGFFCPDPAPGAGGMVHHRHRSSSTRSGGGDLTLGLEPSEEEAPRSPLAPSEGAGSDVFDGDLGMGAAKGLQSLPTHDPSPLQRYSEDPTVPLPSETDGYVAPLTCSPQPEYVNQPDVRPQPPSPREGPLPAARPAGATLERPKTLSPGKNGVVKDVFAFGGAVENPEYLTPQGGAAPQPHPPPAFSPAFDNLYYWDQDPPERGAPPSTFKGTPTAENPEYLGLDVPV
Sequence of EGFR-TK (P00533 669-1210): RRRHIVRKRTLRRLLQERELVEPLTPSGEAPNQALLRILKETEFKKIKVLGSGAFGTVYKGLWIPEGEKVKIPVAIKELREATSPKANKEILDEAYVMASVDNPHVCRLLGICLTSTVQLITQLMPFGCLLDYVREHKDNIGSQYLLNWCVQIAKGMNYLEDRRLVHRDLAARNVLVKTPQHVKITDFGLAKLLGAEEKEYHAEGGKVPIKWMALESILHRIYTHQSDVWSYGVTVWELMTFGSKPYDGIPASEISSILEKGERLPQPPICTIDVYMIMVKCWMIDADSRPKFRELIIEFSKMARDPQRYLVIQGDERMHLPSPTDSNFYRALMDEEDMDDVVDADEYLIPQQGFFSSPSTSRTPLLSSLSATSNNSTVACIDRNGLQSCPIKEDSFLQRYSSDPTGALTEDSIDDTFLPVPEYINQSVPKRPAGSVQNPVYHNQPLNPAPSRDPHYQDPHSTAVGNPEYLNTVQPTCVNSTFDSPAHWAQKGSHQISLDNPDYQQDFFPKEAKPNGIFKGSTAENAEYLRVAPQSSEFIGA

| IC50 (MCF-7) [µM] | times less effective as EGFR inhibitors than erlotinib (EGFR-TK) | IC50 (EGFR-TK) | IC50 (PC-3) [µM] | IC50 (HCT-116) [µM] | IC50 (HER2-TK; HER2 IC50 ± SEM, Table 3) [µM] | GI50 [1] [µM] | IC50 (HER2-TK; HER2 IC50, as printed in text) [µM] | SMILES | times more potent than sorafenib (MDAMB-231) [times] | Cell cycle analysis, Comment (MDA-MB 231 cancer cells; MDA-MB 231, 24 h, 25 μM) | DNA content % G0–G1 (MDA-MB 231 cancer cells; MDA-MB 231, 24 h, 25 μM) [%] | DNA content % G2/M (MDA-MB 231 cancer cells; MDA-MB 231, 24 h, 25 μM) [%] | DNA content % S (MDA-MB 231 cancer cells; MDA-MB 231, 24 h, 25 μM) [%] | percentage of pre-G1 apoptosis (MDA-MB 231 cancer cells; MDA-MB 231, 24 h incubation) [%] | early apoptosis enhanced more than late apoptosis, fold (MDA-MB 231 cells; MDA-MB 231) [fold] | Apoptosis Early (MDA-MB 231 cells; MDA-MB cancer cells, 24 h) | Apoptosis Late (MDA-MB 231 cells; MDA-MB cancer cells, 24 h) | Apoptosis Total (MDA-MB 231 cells; MDA-MB cancer cells, 24 h) | Necrosis (MDA-MB 231 cells; MDA-MB cancer cells, 24 h) | IC50 (BRAF^V600E) [µM] |
| --- | --- | --- | --- | --- | --- | --- | --- | --- | --- | --- | --- | --- | --- | --- | --- | --- | --- | --- | --- | --- |
| 6.94 ± 0.4 | at least 10 times | 0.799 µM and 1.78 µM | 9.08 ± 0.8 | 8.67 ± 0.9 | 0.505 | 7 | – | O=C(CN1CCN(c2ccc(Cl)cc2)CC1)Nc1ccc(C(=O)C=Cc2ccco2)cc1 [4n, 2-(4-(4-Chlorophenyl)piperazin-1-yl)-N-(4-(3-(furan-2-yl)acryloyl)phenyl)acetamide] | 1.6 | – | – | – | – | – | – | – | – | – | – | – |
| 5.05 ± 0.4 | – | 0.209 µM | 13 ± 1 | 6.47 ± 0.4 | 0.101 | 7 | 0.061 | COc1ccc(N2CCN(CC(=O)Nc3ccc(C4=NN(C(C)=O)C(c5cc(OC)c(OC)c(OC)c5)C4)cc3)CC2)cc1 (stereo not drawn) [5d, N-(4-(1-Acetyl-5-(3,4,5-trimethoxyphenyl)-4,5-dihydro-1H-pyrazol-3-yl)phenyl)-2-(4-(4-methoxyphenyl)piperazin-1-yl)acetamide] | 2.7 | Cell cycle arrest @ G1 | 78.53 | 3.36 | 18.11 | 78.53 | 5 | 17.13 | 8.89 | 29.59 | 3.57 | – |
